Each structure is given as a SMILES string. Entries after “also recorded” stand apart in the source; their conditions may differ. Where a name gives a salt, the structure may show the parent alone.

This is an account of results in US11466020B2, “Compounds and compositions for inhibition and elimination of Zika infection and uses for same” (Cornell University, priority 2017, dated 2022).

The test system of one test is ZIKV (FSS13025 strain). Briefly: qRT-PCR of vRNA in human forebrain organoids treated 42 h or 48 h post-infection (FSS13025). Type of test: cell-based, Zika virus. The conditions noted are these: HH added at 42 h or 48 h post-infection, additional 3 days. The procedure:
Immunocytochemical analysis of D20+4 ZIKV-infected organoids treated with 15 μM AQ or DMSO or with mock infection (n=3). D20+4 organoids were stained for SOX2, ZIKV E and with DAPI to monitor the ZIKV infection rate. D20+4 organoids were also stained for Ki67, CAS3 and with DAPI to monitor the cell proliferation and apoptosis rate. […] Scale bars, 100 μm. (B) The expression dynamics of ZIKV vRNA (FSS13025 strain) in human forebrain organoids. qRT-PCR analysis to quantify the total and replicating (−) strand vRNA levels in the human forebrain organoids at different time points post-infection. […] (C) qRT-PCR analysis of human forebrain organoids that were treated with 25 μM HH or DMSO at 42 h or 48 h post-ZIKV (FSS13025 strain) infection and maintained for additional 3 days. p values were calculated by unpaired two-tailed Student's t-test. *p<0.05, **p<0.01 and ***p<0.001, if not mentioned specifically.
To further validate the effect of HH on ZIKV-infected brain organoids, we first monitored ZIKV vRNA expression dynamics in organoids using qRT-PCR analysis.
RNA Extraction and qRT-PCR. Total RNA of cultured cells and organs was extracted with RNeasy plus mini kit (Qiagen). vRNA from cell culture supernatant or mouse serum was extracted with QIAampe viral RNA mini kit (Qiagen). […] ZIKV vRNA levels were calculated using a standard curve generated using serial 10-fold dilutions of ZIKV vRNA.
Background: Quantitative PCR measures a nucleic acid by following its amplification.

Test [1] concerns ZIKV MR766 virus strain. Briefly: Prophylactic treatment of ZIKV infected SCID-Beige mice. Type of test: in vivo. The procedure: (A) Scheme of prophylactic treatment of HH in vivo. HH was administrated to SCID-Beige mice 12 h before infection with MR766 virus strain. HH was injected at a dose of 100 mg/kg/day subcutaneously and euthanized at day 7. (B) qRT-PCR analysis of total ZIKV vRNA in liver, spleen, kidney and brain of ZIKV infected mice. n=12 for liver, spleen and kidney and 20 for brain. (C) qRT-PCR analysis of total ZIKV vRNA in brains of ZIKV-infected mice treated with vehicle (n=14) or HH (n=8). […] (D-F) Immunohistochemical analysis of adult cortex. […] Scale bar=100 μm in (D) and 10 μm in (E, F). (G-I) Immunohistochemical analysis of adult hippocampus. […] Scale bar=100 μm in (G) and 10 μm in (H, I). (J-L) Immunohistochemical analysis of adult striatum. […] Scale bar=100 μm in (J) and 10 μm in (K, L). (M, N) Immunohistochemical analysis of cellular apoptosis in adult cortex. […] Scale bar=100 μm in (M) and 10 μm in (N). (O, P) Expression kinetics of total vRNA (O) and (−) strand vRNA (P) of ZIKV (MR766 strain) in mouse brain. N is larger or equal to 4 mice at each time points. The mice were inoculated with (1×10^6 PFU) through intraperitoneal injection. The mice were euthanized at 12 h, 24 h, 3 days, 4 days and 5 days post-infection. (Q) Scheme of therapeutic treatment of HH on ZIKV (MR766 strain) infected mice. The SCID-beige mice were infected with ZIKV (MR766 strain, 1×10^6 PFU). The mice at 5 days post-infection were treated with 100 mg/kg HH or vehicle daily for 5 days. The mice were then euthanized and RNA from brains was analyzed using qRT-PCR. (R, S) qRT-PCR analysis of total vRNA (R) and (−) strand RNA (S) in the brains of mice treated with vehicle (n=8) or HH (n=8) at day 5 post-infection. (T, U) Expression kinetics of total vRNA (N) and (−) strand vRNA (O) of ZIKV (FSS13025 strain) in mouse brain. N is larger or equal to 4 mice at each time points. The mice were inoculated with (3×10^6 PFU) through intraperitoneal injection. The mice were euthanized at 12 h, 24 h, 3 days, 5 days and 7 days post-infection. (V) Scheme of therapeutic treatment of HH on ZIKV (FSS13025 strain) infected mice. The SCID-beige mice were infected with ZIKV (FSS13025 strain, 3×10^6 PFU). The mice at 7 days post-infection were treated with 100 mg/kg HH or vehicle daily for 7 days. The mice were euthanized after 7 days treatment and RNA from brains was analyzed using qRT-PCR. (W, X) qRT-PCR analysis of total vRNA (W) and (−) strand RNA (X) in the brains of mice treated with vehicle (n=8) or HH (n=11) at day 7 post-infection. p values were calculated by one-way repeated measures ANOVA or two-way repeated measures ANOVA with a Bonferroni test for multiple comparisons. *p<0.05, **p<0.01 and ***p<0.001.
PBS, the solvent used to dissolve both compounds, was used as vehicle control.
The mice were euthanized at day 7 post-infection. Total ZIKV vRNA was then quantified in multiple organs of ZIKV-infected mice treated with vehicle, including liver, spleen, kidney and brain (FIG. 4B).
The immunohistochemical analysis of mouse tissues was performed on cryosections. In brief, the tissues were fixed overnight with 4% PFA at 4° C., embedded in OCT, and then sectioned at 30 μm for immunostaining. The primary and secondary antibodies were used as described above.
Adult mouse infection and in vivo drug testing. 6-8 week old female SCID-Beige mice were infected with ZIKV (2.5×10^5 PFU in 0.5 ml culture fluid) through intraperitoneal injection.

Test [2] relates to ZIKV MR766 virus strain. The description is as above. Type of test: in vivo. Conditions: AQ-treated ZIKV infected mice.
The mark [3] stands for this setting: HH 100 mg/kg/day subcutaneously, hydrobromide.

For `CN1CCC2=C[C@H](O)[C@H]3OC(=O)c4cc5c(cc4[C@H]3[C@@H]21)OCO5` [HH, hippeastrine hydrobromide], the “total and replicating (-) ZIKV vRNA levels in forebrain organoids” value with ZIKV (FSS13025 strain) was “significantly decreased”. In addition, the “ZIKV vRNA in brain” value in the test with ZIKV MR766 virus strain [1] (HH 100 mg/kg/day subcutaneously from 12 h before infection, day 7 post-infection) is recorded as “significantly lower level”. In addition, in the test on ZIKV MR766 virus strain [1] (setting [3]), the “ZIKV infection of adult cortex (immunohistochemistry)” value was “fully inhibits infection of adult cortex; also recorded: completely inhibited”, the “ZIKV infection of adult hippocampus (immunohistochemistry)” value is recorded as “completely inhibits infection of the adult hippocampus; also recorded: completely inhibited”, the “ZIKV infection of adult striatum (immunohistochemistry)” value is “fully inhibits infection of the adult striatum; also recorded: completely inhibited” and the “cellular apoptosis (CAS3) associated with ZIKV infection in the cortex” value was “rescues cellular apoptosis; also recorded: completely inhibited”.

With `CCN(CC)Cc1cc(Nc2ccnc3cc(Cl)ccc23)ccc1O` [AQ, amodiaquine dihydrochloride dihydrate], in the test with ZIKV MR766 virus strain [2], the “ZIKV infection of adult cortex (immunohistochemistry)” value was “suppresses infection in adult cortex”, the “ZIKV infection of adult hippocampus (immunohistochemistry)” value is given as “suppresses infection in adult hippocampus” and the “ZIKV infection of adult striatum (immunohistochemistry)” value is listed as “suppresses infection in adult striatum”.
